Results: patent US9193721B2, “Fused derivatives as PI3Kδ inhibitors” (Incyte Holdings Corporation, priority 2010, dated 2015)

Legend:
[1] = test system: Pfeiffer cell line (diffuse large B cell lymphoma); experiment: Pfeiffer cell proliferation assay; assay type: cell-based; settings: Homo sapiens, [3H]-thymidine incorporation after 3-4 days plus 12 hours
Description: Pfeiffer Cell Proliferation Assay
Pfeiffer cell line (diffuse large B cell lymphoma) was purchased from ATCC (Manassas, Va.) and maintained in the culture medium recommended (RPMI and 10% FBS). To measure the anti-proliferation activity of the compounds, the Pfeiffer cells were plated with the culture medium (2×10^3 cells/well/per 200 μl) into 96-well ultra-low binding plates (Corning, Corning, N.Y.), in the presence or absence of a concentration range of test compounds. After 3-4 days, [^3H]-thymidine (1 μCi/well) (PerkinElmer, Boston, Mass.) in PBS was then added to the cell culture for an additional 12 hours before the incorporated radioactivity was separated by filtration with water through GF/B filters (Packard Bioscience, Meridenj, Conn.) and measured by liquid scintillation counting with a TopCount (Packard Bioscience).

[2] = target: T1, PI3Kδ (p110δ/p85α) (Homo sapiens, UniProt O00329); experiment: PI3Kδ scintillation proximity assay (assay A); assay type: biochemical; settings: 20 μM PIP2, 20 μM ATP, 4 nM PI3Kδ, 210 minutes, room temperature
T1 construct: purchased Millipore (Bedford, Mass.)
T1 sequence (O00329 whole entry): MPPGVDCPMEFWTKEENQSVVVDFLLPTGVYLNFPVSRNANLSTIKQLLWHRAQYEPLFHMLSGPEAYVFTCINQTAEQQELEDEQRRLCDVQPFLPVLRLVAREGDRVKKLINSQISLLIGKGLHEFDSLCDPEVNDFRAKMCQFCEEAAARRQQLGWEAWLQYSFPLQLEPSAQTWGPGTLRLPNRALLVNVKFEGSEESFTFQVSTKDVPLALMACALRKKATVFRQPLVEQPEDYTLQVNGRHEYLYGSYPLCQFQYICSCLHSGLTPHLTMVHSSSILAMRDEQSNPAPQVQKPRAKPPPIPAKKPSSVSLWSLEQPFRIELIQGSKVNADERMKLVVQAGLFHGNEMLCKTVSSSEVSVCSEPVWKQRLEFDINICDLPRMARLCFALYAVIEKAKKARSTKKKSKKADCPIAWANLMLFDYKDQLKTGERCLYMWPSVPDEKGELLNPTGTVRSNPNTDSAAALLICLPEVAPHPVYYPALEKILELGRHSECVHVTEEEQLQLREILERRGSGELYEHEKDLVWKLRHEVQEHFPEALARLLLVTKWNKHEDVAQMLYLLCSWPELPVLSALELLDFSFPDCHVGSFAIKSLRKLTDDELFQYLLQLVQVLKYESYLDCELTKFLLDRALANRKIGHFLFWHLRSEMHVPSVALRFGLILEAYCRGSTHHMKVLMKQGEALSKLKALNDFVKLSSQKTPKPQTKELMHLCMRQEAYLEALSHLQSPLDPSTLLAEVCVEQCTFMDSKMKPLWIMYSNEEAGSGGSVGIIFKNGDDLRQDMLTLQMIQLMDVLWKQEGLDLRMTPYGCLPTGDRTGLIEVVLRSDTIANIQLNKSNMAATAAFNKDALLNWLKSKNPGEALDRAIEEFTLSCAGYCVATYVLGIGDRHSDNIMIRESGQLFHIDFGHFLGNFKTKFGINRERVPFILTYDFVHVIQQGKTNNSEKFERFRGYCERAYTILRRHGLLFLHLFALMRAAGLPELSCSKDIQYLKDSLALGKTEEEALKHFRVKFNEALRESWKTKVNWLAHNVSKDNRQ
T1 sequence (P27986 whole entry partner): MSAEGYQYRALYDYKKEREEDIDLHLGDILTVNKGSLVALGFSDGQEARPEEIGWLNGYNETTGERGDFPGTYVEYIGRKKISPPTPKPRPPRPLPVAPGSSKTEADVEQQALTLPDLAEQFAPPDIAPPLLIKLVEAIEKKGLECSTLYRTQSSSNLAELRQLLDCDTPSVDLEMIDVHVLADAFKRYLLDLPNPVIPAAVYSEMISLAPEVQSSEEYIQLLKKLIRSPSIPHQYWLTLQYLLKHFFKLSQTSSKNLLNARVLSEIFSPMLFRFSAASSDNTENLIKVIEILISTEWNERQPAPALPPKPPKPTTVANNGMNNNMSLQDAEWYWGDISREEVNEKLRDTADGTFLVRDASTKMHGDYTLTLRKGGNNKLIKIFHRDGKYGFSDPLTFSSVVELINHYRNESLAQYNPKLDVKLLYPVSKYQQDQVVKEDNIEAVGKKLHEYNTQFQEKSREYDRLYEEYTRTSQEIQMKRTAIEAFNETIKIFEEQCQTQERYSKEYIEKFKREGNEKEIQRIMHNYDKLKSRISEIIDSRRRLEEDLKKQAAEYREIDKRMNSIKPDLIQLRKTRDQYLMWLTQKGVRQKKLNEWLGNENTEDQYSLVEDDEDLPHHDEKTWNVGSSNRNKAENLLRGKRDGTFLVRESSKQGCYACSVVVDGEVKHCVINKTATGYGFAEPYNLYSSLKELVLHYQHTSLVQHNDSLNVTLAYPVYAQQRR
Description: PI3Kδ Scintillation Proximity Assay
[γ-33P] ATP (10 mCi/mL) was purchased from Perkin-Elmer (Waltham, Mass.). […] PI3Kδ (p110δ/p85α) was purchased from Millipore (Bedford, Mass.). ATP, MgCl2, DTT, EDTA, MOPS and CHAPS were purchased from Sigma-Aldrich (St. Louis, Mo.). Wheat Germ Agglutinin (WGA) YSi SPA Scintillation Beads was purchased from GE healthcare life sciences (Piscataway, N.J.).
The kinase reaction was conducted in polystyrene 384-well matrix white plate from Thermo Fisher Scientific in a final volume of 25 μL. Inhibitors were first diluted serially in DMSO and added to the plate wells before the addition of other reaction components. The final concentration of DMSO in the assay was 0.5%. The PI3K assays were carried out at room temperature in 20 mM MOPS, pH 6.7, 10 mM MgCl2, 5 mM DTT and CHAPS 0.03%. Reactions were initiated by the addition of ATP, the final reaction mixture consisted of 20 μM PIP2, 20 μM ATP, 0.2 μCi [γ-^33P] ATP, 4 nM PI3Kδ. Reactions were incubated for 210 minutes and terminated by the addition of 40 μL SPA beads suspended in quench buffer: 150 mM potassium phosphate pH 8.0, 20% glycerol. 25 mM EDTA, 400 μM ATP. The final concentration of SPA beads is 1.0 mg/mL. After the plate sealing, plates were shaken overnight at room temperature and centrifuged at 1800 rpm for 10 minutes, the radioactivity of the product was determined by scintillation counting on Topcount (Perkin-Elmer). IC50 determination was performed by fitting the curve of percent control activity versus the log of the inhibitor concentration using the GraphPad Prism 3.0 software.

| SMILES | IC50 [1] [nM] | IC50 [2] [nM] |
| --- | --- | --- |
| COc1cccc(-c2c(C(C)Nc3ncnc4[nH]cnc34)cc(Cl)c3ccnn23)c1 (stereo not drawn) [Example 28, N-{1-[4-chloro-7-(3-methoxyphenyl)pyrazolo[1,5-a]pyridin-6-yl]ethyl}-9H-purin-6-amine] | ≤ 100 | < 50 |
| CC(=O)N1CCN(c2c(C(C)Nc3ncnc4[nH]cnc34)cc(C)c3cncn23)CC1 (stereo not drawn) [Example 32, N-{1-[5-(4-Acetylpiperazin-1-yl)-8-methylimidazo[1,5-a]pyridin-6-yl]ethyl}-9H-purin-6-amine bis(trifluoroacetate)] | > 3000 | < 50 |
| CC(Nc1ncnc2[nH]cnc12)c1cc(Cl)c2cncn2c1-c1cccc(F)c1 (single isomer, unassigned) [1, isomer 1] | ≤ 100 | < 50 |
| CC(Nc1ncnc2[nH]cnc12)c1cc(F)c2ccnn2c1-c1cccc(F)c1 (stereo not drawn) [Example 27, N-{1-[4-fluoro-7-(3-fluorophenyl)pyrazolo[1,5-a]pyridin-6-yl]ethyl}-9H-purin-6-amine] | ≤ 100 | < 50 |
| CC(Nc1ncnc2[nH]cnc12)c1cc(Cl)c2cncn2c1N1CCN(C2CCC2)CC1 (stereo not drawn) [Example 15, N-{1-[8-Chloro-5-(4-cyclobutylpiperazin-1-yl)imidazo[1,5-a]pyridin-6-yl]ethyl}-9H-purin-6-amine] | ≤ 100 | 50 to 200 |
| CO[C@@H]1CCN(c2c(C(C)Nc3ncnc4[nH]cnc34)cc(Cl)c3cncn23)C1 (stereo partly drawn) [Example 21, N-(1-{8-Chloro-5-[(3R)-3-methoxypyrrolidin-1-yl]imidazo[1,5-a]pyridin-6-yl}ethyl)-9H-purin-6-amine] | ≤ 100 | < 50 |
| CC(Nc1ncnc2[nH]cnc12)c1cc(Cl)c2cncn2c1N1CCN(C(=O)c2cnn(C)c2)CC1 (stereo not drawn) [Example 11, N-[1-(8-Chloro-5-{4-[(1-methyl-1H-pyrazol-4-yl)carbonyl]piperazin-1-yl}imidazo[1,5-a]pyridin-6-yl)ethyl]-9H-purin-6-amine] | > 3000 | < 50 |
| CC(Nc1ncnc2[nH]cnc12)c1cc(Cl)c2cncn2c1-c1cccc(F)c1 (racemic) [Example 1, N-{1-[8-Chloro-5-(3-fluorophenyl)imidazo[1,5-a]pyridin-6-yl]ethyl}-9H-purin-6-amine] | ≤ 100 | < 50 |
| CC(Nc1ncnc2[nH]cnc12)c1cc(Cl)c2cncn2c1N1CCN(CC2CCCO2)CC1 (stereo not drawn) [Example 16, N-(1-{8-Chloro-5-[4-(tetrahydrofuran-2-ylmethyl)piperazin-1-yl]imidazo[1,5-a]pyridin-6-yl}ethyl)-9H-purin-6-amine] | 100 to 500 | 200 to 750 |
| COCC(=O)N1CCN(c2c(C(C)Nc3ncnc4[nH]cnc34)cc(Cl)c3cncn23)CC1 (stereo not drawn) [Example 8, N-(1-{8-chloro-5-[4-(methoxyacetyl)piperazin-1-yl]imidazo[1,5-a]pyridin-6-yl}ethyl)-9H-purin-6-amine] | > 3000 | < 50 |
| CC(Nc1ncnc2[nH]cnc12)c1cc(Cl)c2cncn2c1-c1cccc(F)c1 (single isomer, unassigned) [1, isomer 2] |  | 50 to 200 |
| CC(Nc1ncnc2[nH]cnc12)c1cc(Cl)c2ccnn2c1-c1cccc(F)c1 (stereo not drawn) [Example 26, N-{1-[4-chloro-7-(3-fluorophenyl)pyrazolo[1,5-a]pyridin-6-yl]ethyl}-9H-purin-6-amine] | ≤ 100 | < 50 |
| CC(Nc1ncnc2[nH]cnc12)c1cc(Cl)c2cncn2c1N1CCN(C(=O)OC(C)(C)C)CC1 (stereo not drawn) [Example 6, tert-Butyl 4-{8-chloro-6-[1-(9H-purin-6-ylamino)ethyl]imidazo[1,5-a]pyridin-5-yl}piperazine-1-carboxylate] | > 3000 | 50 to 200 |

Continued, values first:

| IC50 [1] [nM] | IC50 [2] [nM] | SMILES |
| --- | --- | --- |
|  | < 50 | Cc1ncc2c(Cl)cc(C(C)Nc3ncnc4[nH]cnc34)c(-c3cccc(F)c3)n12 (racemic) [Example 2, N-{1-[8-Chloro-5-(3-fluorophenyl)-3-methylimidazo[1,5-a]pyridin-6-yl]ethyl}-9H-purin-6-amine] |
| ≤ 100 | < 50 | Cc1ncc2c(Cl)cc(C(C)Nc3ncnc4[nH]cnc34)c(-c3cc(F)cc(F)c3)n12 (stereo not drawn) [Example 19, N-{1-[8-Chloro-5-(3,5-difluorophenyl)-3-methylimidazo[1,5-a]pyridin-6-yl]ethyl}-9H-purin-6-amine] |
| 100 to 500 | < 50 | CC(=O)N1CCN(c2c(C(C)Nc3ncnc4[nH]cnc34)cc(Br)c3cncn23)CC1 (stereo not drawn) [Example 30, N-{1-[5-(4-Acetylpiperazin-1-yl)-8-bromoimidazo[1,5-a]pyridin-6-yl]ethyl}-9H-purin-6-amine bis(trifluoroacetate)] |
| > 3000 | < 50 | CC(Nc1ncnc2[nH]cnc12)c1cc(Cl)c2cncn2c1N1CCN(C(=O)CC#N)CC1 (stereo not drawn) [Example 10, 3-(4-{8-Chloro-6-[1-(9H-purin-6-ylamino)ethyl]imidazo[1,5-a]pyridin-5-yl}piperazin-1-yl)-3-oxopropanenitrile] |
| 100 to 500 | < 50 | CCC(Nc1ncnc2[nH]cnc12)c1cc(Cl)c2cncn2c1-c1cccc(F)c1 (stereo not drawn) [Example 18, N-{1-[8-Chloro-5-(3-fluorophenyl)imidazo[1,5-a]pyridin-6-yl]propyl}-9H-purin-6-amine] |
| > 3000 | 200 to 750 | CC(=O)N1CCN(c2c(C(C)Nc3ncnc4[nH]cnc34)cc(C#N)c3cncn23)CC1 (stereo not drawn) [Example 31, 5-(4-Acetylpiperazin-1-yl)-6-[1-(9H-purin-6-ylamino)ethyl]imidazo[1,5-a]pyridine-8-carbonitrile bis(trifluoroacetate)] |
| 100 to 500 | < 50 | CCC(Nc1ncnc2[nH]cnc12)c1cc(Cl)c2cnc(C)n2c1-c1cc(F)cc(F)c1 (stereo not drawn) [Example 20, N-{1-[8-Chloro-5-(3,5-difluorophenyl)-3-methylimidazo[1,5-a]pyridin-6-yl]propyl}-9H-purin-6-amine] |
| ≤ 100 | < 50 | CC(Nc1ncnc2[nH]cnc12)c1cc(Cl)c2cncn2c1N1CC[C@H](O)C1 (stereo partly drawn) [Example 24, (3S)-1-{8-Chloro-6-[1-(9H-purin-6-ylamino)ethyl]imidazo[1,5-a]pyridin-5-yl}pyrrolidin-3-ol] |
| ≤ 100 | < 50 | CO[C@H]1CCN(c2c(C(C)Nc3ncnc4[nH]cnc34)cc(Cl)c3cncn23)C1 (stereo partly drawn) [Example 22, N-(1-{8-Chloro-5-[(3S)-3-methoxypyrrolidin-1-yl]imidazo[1,5-a]pyridin-6-yl}ethyl)-9H-purin-6-amine] |
| 500 to 1000 | < 50 | CC(Nc1ncnc2[nH]cnc12)c1cc(F)c2cncn2c1-c1cccc(F)c1 (stereo not drawn) [Example 29, N-{1-[8-Fluoro-5-(3-fluorophenyl)imidazo[1,5-a]pyridin-6-yl]ethyl}-9H-purin-6-amine] |
| 500 to 1000 | 50 to 200 | CC(Nc1ncnc2[nH]cnc12)c1cc(Cl)c2cncn2c1N1CCN(CC#N)CC1 (stereo not drawn) [Example 13, (4-{8-Chloro-6-[1-(9H-purin-6-ylamino)ethyl]imidazo[1,5-a]pyridin-5-yl}piperazin-1-yl)acetonitrile] |
| ≤ 100 | 50 to 200 | CC(Nc1ncnc2[nH]cnc12)c1cc(Cl)c2cncn2c1N1CC[C@@H](O)C1 (stereo partly drawn) [Example 23, (3R)-1-{8-Chloro-6-[1-(9H-purin-6-ylamino)ethyl]imidazo[1,5-a]pyridin-5-yl}pyrrolidin-3-ol] |
| 100 to 500 | 200 to 750 | COCCN1CCN(c2c(C(C)Nc3ncnc4[nH]cnc34)cc(Cl)c3cncn23)CC1 (stereo not drawn) [Example 12, N-(1-{8-Chloro-5-[4-(2-methoxyethyl)piperazin-1-yl]imidazo[1,5-a]pyridin-6-yl}ethyl)-9H-purin-6-amine] |
| 100 to 500 | < 50 | CC(Nc1ncnc2[nH]cnc12)c1cc(Cl)c2cncn2c1N1CCN(C(=O)C2CC2)CC1 (stereo not drawn) [Example 7, N-(1-{8-Chloro-5-[4-(cyclopropylcarbonyl)piperazin-1-yl]imidazo[1,5-a]pyridin-6-yl}ethyl)-9H-purin-6-amine] |
| 500 to 1000 | < 50 | CCN(CC)c1c(C(C)Nc2ncnc3[nH]cnc23)cc(Cl)c2cnc(C)n12 (stereo not drawn) [Example 25, N-{1-[8-Chloro-5-(diethylamino)-3-methylimidazo[1,5-a]pyridin-6-yl]ethyl}-9H-purin-6-amine] |
